Experimental data reported in ChEMBL document CHEMBL1138847, “Improved structure-activity relationship analysis of HIV-1 protease inhibitors using interaction kinetic data” (J Med Chem, 2004).

Columns and labels:
[1] = target: T1, Human immunodeficiency virus type 1 protease (Human immunodeficiency virus 1, UniProt Q72874); test: Inhibition constant for human immunodeficiency virus type 1 protease
[2] = target: T1, Human immunodeficiency virus type 1 protease; test: Binding affinity for human immunodeficiency virus type 1 protease
[3] = target: Human immunodeficiency virus type 1 protease (Human immunodeficiency virus 1) (UniProt Q72874)
Description: Dissociation rate constant for human immunodeficiency virus type 1 protease

MT4 = test: Effective dose of compound required to inhibit replication of human immunodeficiency virus type 1 in MT-4 cells; assay type: functional; conditions: read-out: ED50 (the source's name)
[4] = target: Human immunodeficiency virus type 1 protease (Human immunodeficiency virus 1) (UniProt Q72874); remark: listed apart in the source
Description: Association rate constant for human immunodeficiency virus type 1 protease

Structure (SMILES) | Ki [1] | Kd [2] | k off [3] | EC50 (MT4) | k on [4]
Cc1cc(NS(=O)(=O)c2ccc(N)cc2)no1 [SULFAMETHOXAZOLE] | 10.1 nM | 577 nM | 0.06 s⁻¹ | > 79000 nM | 188000 M⁻¹ s⁻¹
C[C@@H](Cc1ccc(O)cc1)C(=O)NC(=O)[C@H](O)[C@H](O)[C@@H](O)[C@@H](Oc1ccccc1)C(=O)NC(=O)[C@@H](C)Cc1ccc(O)cc1 | 5000 nM | 309000 nM | 0.06 s⁻¹ | > 67000 nM | 172 M⁻¹ s⁻¹
CC(C)[C@H](C)C(=O)NC(=O)[C@H](O)[C@H](O)[C@@H](O)[C@@H](Oc1ccc(C2=C(O)C(=O)CCC2)cc1)C(=O)NC(=O)[C@@H](C)C(C)C | 0.3 nM | 17.5 nM | 0.000487 s⁻¹ | 5600 nM | 29300 M⁻¹ s⁻¹
CC(C)[C@H](C)C(=O)NC(=O)[C@H](O)[C@H](O)[C@@H](O)[C@@H](Oc1ccc(CCc2ccccc2)cc1)C(=O)NC(=O)[C@@H](C)C(C)C | 0.8 nM | 34.2 nM | 0.00163 s⁻¹ | 2050 nM | 81100 M⁻¹ s⁻¹
O=C(NC1c2ccccc2C[C@H]1O)[C@H](O)C[C@@H](O)[C@@H](Oc1ccccc1)C(=O)NC1c2ccccc2C[C@@H]1O (stereo partly drawn) | – | 35.8 nM | 0.02 s⁻¹ | 1440 nM | 666000 M⁻¹ s⁻¹
CC(C)[C@H](C)C(=O)NC(=O)[C@H](O)[C@H](O)[C@@H](O)[C@@H](Oc1ccc(-c2ccccn2)cc1)C(=O)NC(=O)[C@@H](C)C(C)C | 0.61 nM | 1.18 nM | 0.000373 s⁻¹ | 640 nM | 323000 M⁻¹ s⁻¹
CC(C)CN(C[C@@H](O)[C@H](Cc1ccccc1)NC(=O)O[C@H]1CCOC1)S(=O)(=O)c1ccc(N)cc1 | 0.23 nM | 1.1 nM | 0.00488 s⁻¹ | 80 nM | 4.43e+06 M⁻¹ s⁻¹
O=S1(=O)N(Cc2ccc(CO)cc2)[C@H](COc2ccccc2)[C@H](O)[C@@H](O)[C@@H](COc2ccccc2)N1Cc1ccc(CO)cc1 | – | – | 0.0273 s⁻¹ | 1550 nM | –
COC(=O)/C=C/c1ccc(O[C@@H](C(=O)NC(=O)[C@@H](C)C(C)C)[C@H](O)[C@@H](O)[C@@H](O)C(=O)NC(=O)[C@@H](C)C(C)C)cc1 | 0.09 nM | 1.95 nM | 0.000365 s⁻¹ | 2580 nM | 204000 M⁻¹ s⁻¹
CC(C)(C)NC(=O)[C@@H]1CN(Cc2cccnc2)CCN1C[C@@H](O)C[C@@H](Cc1ccccc1)C(=O)N[C@H]1c2ccccc2C[C@H]1O | – | – | – | 50 nM | –
O=C(NC1c2ccccc2C[C@@H]1O)[C@H](O)[C@H](O)[C@@H](O)[C@@H](Oc1ccccc1)C(=O)NC1c2ccccc2C[C@@H]1O (stereo partly drawn) | 0.6 nM | 13.9 nM | 0.01 s⁻¹ | 100 nM | 6.39e+06 M⁻¹ s⁻¹
CCO[C@@H](C(=O)NC(=O)[C@@H](C)C(C)C)[C@H](O)[C@@H](O)[C@@H](O)C(=O)NC(=O)[C@@H](C)C(C)C | – | 38400 nM | 0.00485 s⁻¹ | > 192000 nM | 134 M⁻¹ s⁻¹
CC(C)[C@H](C)C(=O)NC(=O)[C@H](O)[C@@H](O)[C@H](O)[C@@H](Oc1ccccc1)C(=O)NC(=O)[C@@H](C)C(C)C | 40 nM | 2990 nM | 0.02 s⁻¹ | 22900 nM | 9200 M⁻¹ s⁻¹
CC(NO)c1cccc(CN2[C@H](COc3ccccc3)[C@H](O)[C@@H](O)[C@@H](COc3ccccc3)N(Cc3cccc(C(C)NO)c3)S2(=O)=O)c1 (stereo partly drawn) | 5.6 nM | 169 nM | 0.04 s⁻¹ | 2900 nM | 512000 M⁻¹ s⁻¹
CC(C)[C@H](C)C(=O)NC(=O)[C@H](O)[C@H](O)[C@@H](O)[C@@H](Oc1ccc(Br)cc1)C(=O)NC(=O)[C@@H](C)C(C)C | 0.3 nM | 21.1 nM | 0.00169 s⁻¹ | 650 nM | –
CC(C)[C@H](C)C(=O)NC(=O)[C@H](O)[C@H](O)[C@@H](O)[C@@H](Oc1ccccc1)C(=O)NC(=O)[C@@H](C)C(C)C | 0.4 nM | 10.8 nM | 0.00367 s⁻¹ | 1320 nM | 355000 M⁻¹ s⁻¹
CC(C)[C@H](C)C(=O)NC(=O)[C@H]([O-])[C@H](O)[C@@H](O)[C@@H](Oc1ccc(C2=CC=[S+]C2)cc1)C(=O)NC(=O)[C@@H](C)C(C)C | 1.2 nM | 3.04 nM | 0.000432 s⁻¹ | 40 nM | 348000 M⁻¹ s⁻¹
CC(C)[C@H](C)C(=O)NC(=O)[C@H](O)[C@H](O)[C@@H](O)[C@@H](Oc1ccc(-c2cccc([N+](=O)[O-])c2)cc1)C(=O)NC(=O)[C@@H](C)C(C)C | 1.4 nM | 18.2 nM | 0.000817 s⁻¹ | 160 nM | 181000 M⁻¹ s⁻¹
CC(C)(C)NC(=O)[C@@H]1C[C@@H]2CCCC[C@@H]2CN1C[C@@H](O)[C@H](Cc1ccccc1)NC(=O)[C@H](CC(N)=O)NC(=O)c1ccc2ccccc2n1 | – | – | – | 10 nM | –
COC(=O)N[C@H](C(=O)N[C@@H](Cc1ccccc1)[C@@H](O)CN(Cc1ccc(-c2ccccn2)cc1)NC(=O)[C@@H](NC(=O)OC)C(C)(C)C)C(C)(C)C [ATAZANAVIR] | 0.24 nM | 0.4 nM | 0.00069 s⁻¹ | 6 nM | 1.67e+06 M⁻¹ s⁻¹
CC(C)[C@H](C)C(=O)NC(=O)[C@H](O)[C@H](O)[C@@H](O)[C@@H](Oc1ccccc1)C(=O)NC1c2ccccc2C[C@@H]1O (stereo partly drawn) | 0.05 nM | 4.42 nM | 0.02 s⁻¹ | 120 nM | 5.97e+06 M⁻¹ s⁻¹
Cc1c(O)cccc1C(=O)N[C@@H](CSc1ccccc1)[C@H](O)CN1C[C@H]2CCCC[C@H]2C[C@H]1C(=O)NC(C)(C)C | – | – | – | 20 nM | –
CC(C)c1nc(CN(C)C(=O)N[C@H](C(=O)N[C@@H](Cc2ccccc2)C[C@H](O)[C@H](Cc2ccccc2)NC(=O)OCc2cncs2)C(C)C)cs1 [RITONAVIR] | – | – | – | 50 nM | –
Cc1cccc(C)c1OCC(=O)N[C@@H](Cc1ccccc1)[C@@H](O)C[C@H](Cc1ccccc1)NC(=O)[C@H](C(C)C)N1CCCNC1=O [LOPINAVIR] | – | – | 0.000654 s⁻¹ | 10 nM | 6.63e+06 M⁻¹ s⁻¹
CC(C)[C@H](C)C(=O)NC(=O)[C@H](O)[C@H](O)[C@@H](O)[C@@H](Oc1ccc(-c2nccs2)cc1)C(=O)NC(=O)[C@@H](C)C(C)C | 0.55 nM | 0.64 nM | 0.000303 s⁻¹ | 240 nM | 477000 M⁻¹ s⁻¹
CC(C)(C)NC(=O)c1ccccc1NC[C@@H](O)[C@H](Cc1ccccc1)NC(=O)[C@H](CC(N)=O)NC(=O)OCc1ccccc1 | – | – | – | 3310 nM | –
CC(C)(C)NC(=O)c1ccccc1NC[C@H](O)[C@H](Cc1ccccc1)NC(=O)[C@H](CC(N)=O)NC(=O)c1ccc2ccccc2n1 | – | – | – | 10100 nM | –
